#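 Compound exposure: 48 hours, 5 concentrations, 96-well plates. GI50: concentration for 50% inhibition of growth. The concentration for full growth arrest is given as TGI.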
# Tests used:
# Assay in all cases: NCI tumour cell line growth inhibition, 48 h
# CAKI-1 renal = tested on: CAKI-1 renal
# HCT-116 colon = tested on: HCT-116 colon
# HL-60(TB) leukemia = tested on: HL-60(TB) leukemia
# BT-549 breast = tested on: BT-549 breast
# CCRF-CEM leukemia = tested on: CCRF-CEM leukemia
# EKVX NSCLC = tested on: EKVX NSCLC
# NCI-H460 lung = tested on: NCI-H460 lung
# A549 NSCLC = tested on: A549 NSCLC
# KM12 colon = tested on: KM12 colon
# TK-10 renal = tested on: TK-10 renal
# U251 CNS = tested on: U251 CNS
# UO-31 renal = tested on: UO-31 renal
# OVCAR-8 ovarian = tested on: OVCAR-8 ovarian
# OVCAR-5 ovarian = tested on: OVCAR-5 ovarian
# HT29 colon = tested on: HT29 colon
# NCI-H226 lung = tested on: NCI-H226 lung
# SK-MEL-5 melanoma = tested on: SK-MEL-5 melanoma
# NCI-H522 lung = tested on: NCI-H522 lung
# DU-145 prostate = tested on: DU-145 prostate
# SK-MEL-2 melanoma = tested on: SK-MEL-2 melanoma
# UACC-257 melanoma = tested on: UACC-257 melanoma
# MDA-MB-231 breast = tested on: MDA-MB-231 breast
# SF-268 CNS = tested on: SF-268 CNS
# NCI-H23 lung = tested on: NCI-H23 lung
# MOLT-4 leukemia = tested on: MOLT-4 leukemia
# OVCAR-3 ovarian = tested on: OVCAR-3 ovarian
# SK-MEL-28 melanoma = tested on: SK-MEL-28 melanoma
# HCT-15 colon = tested on: HCT-15 colon
# COLO 205 colon = tested on: COLO 205 colon
# RPMI-8226 leukemia = tested on: RPMI-8226 leukemia
# SW-620 colon = tested on: SW-620 colon
# NCI/ADR-RES ovarian = tested on: NCI/ADR-RES ovarian
# ACHN renal = tested on: ACHN renal
# MCF7 breast = tested on: MCF7 breast
# 786-0 renal = tested on: 786-0 renal
# UACC-62 melanoma = tested on: UACC-62 melanoma
# K-562 leukemia = tested on: K-562 leukemia
# HOP-62 NSCLC = tested on: HOP-62 NSCLC
# HOP-92 NSCLC = tested on: HOP-92 NSCLC
# SF-539 CNS = tested on: SF-539 CNS
# LOX IMVI melanoma = tested on: LOX IMVI melanoma
# T-47D breast = tested on: T-47D breast
# SNB-75 CNS = tested on: SNB-75 CNS
# SF-295 CNS = tested on: SF-295 CNS
# M14 melanoma = tested on: M14 melanoma
# PC-3 prostate = tested on: PC-3 prostate
# MALME-3M melanoma = tested on: MALME-3M melanoma
# A498 renal = tested on: A498 renal
# OVCAR-4 ovarian = tested on: OVCAR-4 ovarian
# IGROV1 ovarian = tested on: IGROV1 ovarian
# SK-OV-3 ovarian = tested on: SK-OV-3 ovarian
# SN12C renal = tested on: SN12C renal
# MDA-MB-435 = tested on: MDA-MB-435
# HS 578T breast = tested on: HS 578T breast
# SNB-19 CNS = tested on: SNB-19 CNS
# HCC-2998 colon = tested on: HCC-2998 colon
# RXF 393 renal = tested on: RXF 393 renal
# SR leukemia = tested on: SR leukemia
smiles,measurement,setting,value
O=C1c2ccccc2-c2c1c1ccccc1c(=O)n2CCNCCNCCNCCNCCn1c2c(c3ccccc3c1=O)C(=O)c1ccccc1-2,GI50,CAKI-1 renal,260 nM
same,TGI,CAKI-1 renal,2930 nM
same,GI50,HCT-116 colon,133 nM
same,GI50,HL-60(TB) leukemia,216 nM
same,TGI,HL-60(TB) leukemia,2080 nM
same,GI50,BT-549 breast,334 nM
same,TGI,BT-549 breast,1620 nM
same,GI50,CCRF-CEM leukemia,125 nM
same,TGI,CCRF-CEM leukemia,2650 nM
same,GI50,EKVX NSCLC,677 nM
same,TGI,EKVX NSCLC,2700 nM
same,GI50,NCI-H460 lung,66.9 nM
same,TGI,NCI-H460 lung,1990 nM
same,GI50,A549 NSCLC,590 nM
same,TGI,A549 NSCLC,3.23 µM
same,GI50,KM12 colon,655 nM
same,TGI,KM12 colon,5.32 µM
same,GI50,TK-10 renal,177 nM
same,TGI,TK-10 renal,1350 nM
same,GI50,U251 CNS,> 100000 nM
same,TGI,U251 CNS,> 100000 nM
same,GI50,UO-31 renal,661 nM
same,TGI,UO-31 renal,2090 nM
same,GI50,OVCAR-8 ovarian,172 nM
same,TGI,OVCAR-8 ovarian,2690 nM
same,GI50,OVCAR-5 ovarian,> 100000 nM
same,TGI,OVCAR-5 ovarian,> 100000 nM
same,GI50,HT29 colon,98.6 nM
same,TGI,HT29 colon,4.07 µM
same,GI50,NCI-H226 lung,368 nM
same,TGI,NCI-H226 lung,1950 nM
same,GI50,SK-MEL-5 melanoma,323 nM
same,TGI,SK-MEL-5 melanoma,1470 nM
same,GI50,NCI-H522 lung,20.2 nM
same,TGI,NCI-H522 lung,474 nM
same,GI50,DU-145 prostate,161 nM
same,TGI,DU-145 prostate,1570 nM
same,GI50,SK-MEL-2 melanoma,692 nM
same,TGI,SK-MEL-2 melanoma,2.4 µM
same,GI50,UACC-257 melanoma,716 nM
same,TGI,UACC-257 melanoma,5.73 µM
same,GI50,MDA-MB-231 breast,84.6 nM
same,TGI,MDA-MB-231 breast,1600 nM
same,GI50,SF-268 CNS,49 nM
same,TGI,SF-268 CNS,808 nM
same,GI50,NCI-H23 lung,615 nM
same,TGI,NCI-H23 lung,2750 nM
same,GI50,MOLT-4 leukemia,< 19.1 nM
same,GI50,OVCAR-3 ovarian,1450 nM
same,TGI,OVCAR-3 ovarian,4960 nM
same,GI50,SK-MEL-28 melanoma,1950 nM
same,TGI,SK-MEL-28 melanoma,> 100000 nM
same,GI50,HCT-15 colon,568 nM
same,TGI,HCT-15 colon,2560 nM
same,GI50,COLO 205 colon,597 nM
same,TGI,COLO 205 colon,3940 nM
same,GI50,RPMI-8226 leukemia,17.8 nM
same,TGI,RPMI-8226 leukemia,187 nM
same,GI50,SW-620 colon,40.5 nM
same,TGI,SW-620 colon,1170 nM
same,GI50,NCI/ADR-RES ovarian,> 53000 nM
same,TGI,NCI/ADR-RES ovarian,96.9 µM
same,GI50,ACHN renal,44.6 nM
same,TGI,ACHN renal,580 nM
same,GI50,MCF7 breast,50.1 nM
same,TGI,MCF7 breast,1710 nM
same,GI50,786-0 renal,102 nM
same,TGI,786-0 renal,2190 nM
same,GI50,UACC-62 melanoma,447 nM
same,TGI,UACC-62 melanoma,1710 nM
same,GI50,K-562 leukemia,46.2 nM
same,GI50,HOP-62 NSCLC,973 nM
same,TGI,HOP-62 NSCLC,2240 nM
same,GI50,HOP-92 NSCLC,939 nM
same,TGI,HOP-92 NSCLC,2500 nM
same,GI50,SF-539 CNS,44.6 nM
same,TGI,SF-539 CNS,314 nM
same,GI50,LOX IMVI melanoma,18.2 nM
same,TGI,LOX IMVI melanoma,70.3 nM
same,GI50,T-47D breast,1990 nM
same,TGI,T-47D breast,> 100000 nM
N#C/C(=C/C=C/c1cccc(Cl)c1)S(=O)c1ccccc1 (centres undefined),GI50,CAKI-1 renal,283 nM
same,TGI,CAKI-1 renal,1080 nM
same,GI50,HCT-116 colon,241 nM
same,TGI,HCT-116 colon,642 nM
same,GI50,HL-60(TB) leukemia,285 nM
same,TGI,HL-60(TB) leukemia,2160 nM
same,GI50,CCRF-CEM leukemia,296 nM
same,TGI,CCRF-CEM leukemia,1210 nM
same,GI50,EKVX NSCLC,803 nM
same,TGI,EKVX NSCLC,2230 nM
same,GI50,SNB-75 CNS,1200 nM
same,TGI,SNB-75 CNS,3.82 µM
same,GI50,SF-295 CNS,1300 nM
same,TGI,SF-295 CNS,2880 nM
same,GI50,NCI-H460 lung,474 nM
same,TGI,NCI-H460 lung,2510 nM
same,GI50,A549 NSCLC,1210 nM
same,TGI,A549 NSCLC,3.12 µM
same,GI50,M14 melanoma,1100 nM
same,TGI,M14 melanoma,2890 nM
same,GI50,KM12 colon,321 nM
same,TGI,KM12 colon,1.38 µM
same,GI50,PC-3 prostate,250 nM
same,TGI,PC-3 prostate,867 nM
same,GI50,TK-10 renal,359 nM
same,TGI,TK-10 renal,1320 nM
same,GI50,U251 CNS,361 nM
same,TGI,U251 CNS,1310 nM
same,GI50,MALME-3M melanoma,1050 nM
same,TGI,MALME-3M melanoma,2690 nM
same,GI50,UO-31 renal,358 nM
same,TGI,UO-31 renal,1710 nM
same,GI50,OVCAR-8 ovarian,256 nM
same,TGI,OVCAR-8 ovarian,629 nM
same,GI50,A498 renal,1800 nM
same,TGI,A498 renal,3.53 µM
same,GI50,OVCAR-5 ovarian,391 nM
same,TGI,OVCAR-5 ovarian,1700 nM
same,GI50,NCI-H226 lung,1140 nM
same,TGI,NCI-H226 lung,3680 nM
same,GI50,OVCAR-4 ovarian,266 nM
same,TGI,OVCAR-4 ovarian,1160 nM
same,GI50,SK-MEL-5 melanoma,1790 nM
same,TGI,SK-MEL-5 melanoma,3610 nM
same,GI50,NCI-H522 lung,251 nM
same,TGI,NCI-H522 lung,804 nM
same,GI50,DU-145 prostate,393 nM
same,TGI,DU-145 prostate,1560 nM
same,GI50,IGROV1 ovarian,399 nM
same,TGI,IGROV1 ovarian,1710 nM
same,GI50,SK-MEL-2 melanoma,1620 nM
same,TGI,SK-MEL-2 melanoma,3.66 µM
same,GI50,UACC-257 melanoma,1640 nM
same,TGI,UACC-257 melanoma,3.16 µM
same,GI50,MDA-MB-231 breast,384 nM
same,TGI,MDA-MB-231 breast,1400 nM
same,GI50,SF-268 CNS,391 nM
same,TGI,SF-268 CNS,2140 nM
same,GI50,NCI-H23 lung,420 nM
same,TGI,NCI-H23 lung,1740 nM
same,GI50,SK-OV-3 ovarian,2210 nM
same,TGI,SK-OV-3 ovarian,10.2 µM
same,GI50,SN12C renal,359 nM
same,TGI,SN12C renal,1420 nM
same,GI50,MOLT-4 leukemia,307 nM
same,TGI,MOLT-4 leukemia,2280 nM
same,GI50,OVCAR-3 ovarian,253 nM
same,TGI,OVCAR-3 ovarian,782 nM
same,GI50,SK-MEL-28 melanoma,1230 nM
same,TGI,SK-MEL-28 melanoma,2680 nM
same,GI50,HCT-15 colon,197 nM
same,TGI,HCT-15 colon,560 nM
same,GI50,COLO 205 colon,386 nM
same,TGI,COLO 205 colon,1310 nM
same,GI50,RPMI-8226 leukemia,339 nM
same,TGI,RPMI-8226 leukemia,1000 nM
same,GI50,MDA-MB-435,448 nM
same,TGI,MDA-MB-435,1690 nM
same,GI50,NCI/ADR-RES ovarian,278 nM
same,TGI,NCI/ADR-RES ovarian,0.859 µM
same,GI50,ACHN renal,340 nM
same,TGI,ACHN renal,1290 nM
same,GI50,786-0 renal,308 nM
same,TGI,786-0 renal,1010 nM
same,GI50,UACC-62 melanoma,1140 nM
same,TGI,UACC-62 melanoma,2690 nM
same,GI50,HS 578T breast,1680 nM
same,TGI,HS 578T breast,33.4 µM
same,GI50,SNB-19 CNS,684 nM
same,TGI,SNB-19 CNS,2520 nM
same,GI50,HCC-2998 colon,366 nM
same,TGI,HCC-2998 colon,1310 nM
same,GI50,K-562 leukemia,301 nM
same,TGI,K-562 leukemia,13.2 µM
same,GI50,HOP-62 NSCLC,326 nM
same,TGI,HOP-62 NSCLC,1130 nM
same,GI50,RXF 393 renal,233 nM
same,TGI,RXF 393 renal,568 nM
same,GI50,HOP-92 NSCLC,398 nM
same,TGI,HOP-92 NSCLC,1620 nM
same,GI50,SF-539 CNS,281 nM
same,TGI,SF-539 CNS,882 nM
same,GI50,SR leukemia,227 nM
same,TGI,SR leukemia,2670 nM
same,GI50,LOX IMVI melanoma,175 nM
same,TGI,LOX IMVI melanoma,343 nM
same,GI50,T-47D breast,234 nM
same,TGI,T-47D breast,1110 nM

# Reference: PubChem BioAssay (NCI)
